Entries after “also recorded” stand apart in the source; their conditions may differ.
Tests used:
Format in all cases: biochemical
[1] = system: SOD; experiment: Testing of structural analogs for inhibition of SOD aggregation; conditions: Example 2, compounds of FIG. 2
Procedure: (§1) Aggregation assays for screening were prepared by adding a stock solution of compound to a protein solution (final concentrations: 100 μM compound, 50 μM protein). Following a 15 minute preincubation period at 37° C., 5 mM EDTA was added to initiate aggregation. Aliquots were periodically removed and analyzed for the amount of SOD-1 dimer present. This value correlated in all cases with the appearance of oligomers by gel filtration on a Superdex 200™ (3.2/30) gel filtration column (Pharmacia). All chromatography was performed in TBS, pH 7.4 (20 mM Tris, 150 mM NaCl) on a Waters 2690 Alliance HPLC and monitored at 220 and 276 nm. […] Assays in the absence of EDTA were carried as described previously (16). For Apo-A4V experiments, buffers were treated with CHELEX (except those containing EDTA) and experiments were performed in plastic tubes to avoid introduction of contaminating zinc into the Apo-protein.
A structural analysis was performed on the 15 compounds found to be active in the assays described in Example 1 (see FIG. 1). […] Although most of the compounds tested were purchased commercially, two (1,2-di-[6-Mercapto-2H-[1,2,4]triazine-3,5-dione]ethane; and di-{5-[1H-pyrimidine-2,4-dione]methyl}thioether) were synthesized as described in Example 3.

[2] = target: T1, A4V (Homo sapiens, UniProt P00441, A5V); experiment: Guanidinium chloride unfolding of A4V (fluorescence); conditions: 5 μM protein, fluorescence 348 nm
T1 construct: made in house
T1 sequence (P00441 2-154 A5V limits assumed): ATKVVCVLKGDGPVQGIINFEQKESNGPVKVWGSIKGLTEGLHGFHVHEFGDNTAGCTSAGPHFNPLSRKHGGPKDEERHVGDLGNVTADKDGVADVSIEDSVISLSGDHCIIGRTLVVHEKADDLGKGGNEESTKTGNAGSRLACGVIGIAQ
Text: Equilibrium unfolding transition, as a function of GdnCl concentration, was monitored by fluorescence spectroscopy. The fluorescence measurements were done on a Hitachi f-4500 spectrofluorometer in a 1-cm cell connected to a circulation water bath. The excitation and emission wavelengths were fixed at 278 and 348 nm, respectively, after making appropriate corrections for buffer and GdnCl. The slit width was 5 nm for both monochromators. Each measurement was an average of five readings. Protein concentration used for fluorescence experiments was 5 μM. The data were analyzed directly for a two-state (N→U) transition as follows: the raw data for the GdnCl-induced denaturation studies were converted to fractions of the protein in the unfolded state (fu) as a function of GdnCl concentration using the equation: fu=Y0−(Yf+mf[GdnCl.])/(Yu+mu[GdnCl.])−(Yf+mf[GdnCl.]) where Y0 is the observed spectroscopic property, Yf and mf are the […] of the folded state baseline and Yu and mu represent the respective values of the unfolded baseline. The folded fraction was calculated as (fn=1−fu) and the equilibrium constant was determined by Keq=fu/fn. The free energy of unfolding was determined using the equation ΔG=−RT ln(Keq) where T is the temperature in Kelvin and R is the universal gas constant (1.987 cal mol−1 K−1).

[3] = target: T2, G93A (Homo sapiens, UniProt P00441, G94A); experiment: EDTA-induced aggregation of G93A
T2 construct: made in house
T2 sequence (P00441 2-154 G94A limits assumed): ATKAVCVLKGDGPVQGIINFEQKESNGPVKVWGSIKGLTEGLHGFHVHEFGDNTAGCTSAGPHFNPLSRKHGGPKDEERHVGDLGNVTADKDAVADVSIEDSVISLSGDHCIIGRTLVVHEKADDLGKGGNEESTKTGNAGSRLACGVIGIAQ
Procedure: as §1

[4] = target: T3, G85R (Homo sapiens, UniProt P00441, G86R); experiment: EDTA-induced aggregation of G85R
T3 construct: made in house
T3 sequence (P00441 2-154 G86R limits assumed): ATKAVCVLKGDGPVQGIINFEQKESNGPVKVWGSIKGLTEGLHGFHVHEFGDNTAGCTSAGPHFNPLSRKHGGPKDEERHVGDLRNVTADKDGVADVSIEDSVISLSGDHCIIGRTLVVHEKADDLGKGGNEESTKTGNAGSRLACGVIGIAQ
Procedure: as §1

[5] = target: T4, A4V/V7F/V148F (Homo sapiens, UniProt P00441, A5V/V149F/V8F); experiment: Aggregation of A4V/V7F/V148F (putative binding site disturbed); conditions: binding site disturbed by V7F/V148F
T4 construct: made in house; host or cells: E. coli
T4 sequence (P00441 2-154 A5V/V8F/V149F limits assumed): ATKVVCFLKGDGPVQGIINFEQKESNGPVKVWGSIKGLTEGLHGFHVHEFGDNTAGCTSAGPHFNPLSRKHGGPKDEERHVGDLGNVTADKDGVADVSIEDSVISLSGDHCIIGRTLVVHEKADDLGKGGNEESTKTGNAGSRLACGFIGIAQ
Procedure: as §1
To investigate the effect of partially capping the cavity with hydrophobic moieties, residues V148 and V7, the sidechains of which protruded into the cavity, were mutated to phenylalanine. […] Filling cavities in protein structures with hydrophobic side chains often stabilizes the protein structure (30, 31), lysozyme being a classic example (32).
Three variants of SOD-1, in which the V7F and V148F mutations were introduced into WT, A4V and G93A, were cloned, expressed in E. coli and purified as described previously (15). Each protein was subjected to guanidine chloride (GdnCl) unfolding and fluorescence intensity (348 nm) was monitored at 25° C. WT enzyme was completely unfolded at 3.5 M GdnCl (Cm=3.2 M, where Cm is the midpoint of transition), while A4V was completely unfolded at 1.9 M GdnCl (Cm=1.51 M). […] G93A/V7F/V148F was slightly more resistant to denaturation than G93A. No significant effect of the two V→F mutations on the denaturation of WT (i.e., WT vs. V7F/V148F) could be measured. The V→F mutations stabilized both A4V and G93A against EDTA induced aggregation. […] Similarly, G93A/V7F/V148F aggregated slightly more slowly than G93A.

[6] = target: T5, A4V, a FALS-linked variant of SOD-1 (Homo sapiens, UniProt P00441, A5V); experiment: A4V aggregation assay with EDTA (SOD-1 dimer loss by gel filtration); conditions: 100 μM compound, 50 μM protein
T5 construct: made in house
T5 sequence (P00441 2-154 A5V limits assumed): as the sequence (P00441 2-154 A5V limits assumed) above
Procedure: SOD-1 dimer was purified on a Superdex 75™ (16/60) gel filtration column (Pharmacia) to produce starting material for each aggregation experiment. Metal analyses were carried by inductive coupled plasma mass-spectrometry (ICP-MS). WT and G93A were nearly fully metallated, and G85R and A4V were deficient in zinc and copper, respectively.
as §1

Structure (SMILES) | inhibition of SOD aggregation by structural analogs [1] | stabilization of A4V against GdnCl induced unfolding (expressed as ΔG) [2] | inhibition of G93A aggregation [3] | inhibition of G85R aggregation [4] | change in the aggregation rate of A4V/V7F/V148F [5] | inhibition of A4V aggregation (in words) [6]
O=c1[nH]cc(CSCc2c[nH]c(=O)[nH]c2=O)c(=O)[nH]1 [di-{5-[1H-pyrimidine-2,4-dione]methyl}thioether] | most active | – | – | – | – | –
O=c1cc(Nc2ccc(Cl)cc2)[nH]c(=O)[nH]1 [Compound 2, 6-[(4-chlorophenyl)amino]pyrimidine-2,4(1H,4H)-dione] | – | stabilized A4V nearly to WT levels; also recorded: stabilizes the A4V dimer to an extent comparable to the difference in stability between the invariably lethal A4V and WT SOD-1 | among the best inhibitors | among the best inhibitors | no appreciable change | most potent A4V aggregation inhibitors; also recorded: among the most potent aggregation inhibitors
O=c1[nH]c(=O)n(CCn2nc(S)c(=O)[nH]c2=O)nc1S [1,2-di-[6-Mercapto-2H-[1,2,4]triazine-3,5-dione]ethane] | most active | – | – | – | – | –
O=c1[nH]nc(SCc2ccc(F)cc2)c(=O)[nH]1 [Compound 7, 6-[(4-fluorobenzyl)thio]-1,2,4-triazine-3,5(2H,4H)-dione] | – | stabilized A4V nearly to WT levels | among the best inhibitors | among the best inhibitors | no appreciable change | most potent A4V aggregation inhibitors; also recorded: among the most potent aggregation inhibitors
O=c1[nH]cc(CSc2n[nH]c(=O)[nH]c2=O)c(=O)[nH]1 [6-{[(2,4-dioxo-1,2,3,4-tetrahydropyrimidin-5-yl)methyl]thio}-1,2,4-triazine-3,5(2H,4H)-dione] | most active | – | – | – | – | –
Oc1ccc(Br)cc1/C=N/c1ccc(F)cc1 [Compound 4, 4-bromo-2-{(E)-[(4-fluorophenyl)imino]methyl}phenol] | – | stabilized A4V nearly to WT levels | among the best inhibitors | among the best inhibitors | no appreciable change | most potent A4V aggregation inhibitors; also recorded: among the most potent aggregation inhibitors
O=c1[nH]nc(SCc2ccc(Cl)cc2)c(=O)[nH]1 [Compound 3, 6-[(4-chlorobenzyl)thio]1,2,4-triazine-3,5(2H,4H)-dione] | – | stabilized A4V nearly to WT levels | among the best inhibitors | among the best inhibitors | no appreciable change | most potent A4V aggregation inhibitors; also recorded: among the most potent aggregation inhibitors

Reference: patent publication US20060194821A1, “Compounds inhibiting the aggregation of superoxide dismutase-1” (The Brigham and women's Hospital, Inc., priority 2005, published 2006)
